Measurements published in ChEMBL document CHEMBL1201862, “PubChem BioAssay data set” (2004).
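Protocol summary: plate cells (96-well), add compound at 5 concentrations, incubate 48 h, interpolate endpoints linearly. GI50 = concentration required for 50% inhibition of growth.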 The source made the active and inactive calls. No stated cut-off is given here; in the data, active = GI50 up to about 1.1 µM and inactive = higher.

Columns and labels:
Assay in all cases: inhibition of tumour cell growth, NCI panel, 48 h
MOLT-4 = system: MOLT-4
CAKI-1 = system: CAKI-1
UACC-62 = system: UACC-62
TK-10 = system: TK-10
OVCAR-8 = system: OVCAR-8
SNB-19 = system: SNB-19
MCF7 = system: MCF7
UO-31 = system: UO-31
SF-539 = system: SF-539
786-0 = system: 786-0
Hs-578T = system: Hs-578T
NCI/ADR-RES = system: NCI/ADR-RES
HL-60 = system: HL-60
SK-MEL-5 = system: SK-MEL-5
HT-29 = system: HT-29
HCT-116 = system: HCT-116
U-251 = system: U-251
OVCAR-3 = system: OVCAR-3
IGROV-1 = system: IGROV-1
EKVX = system: EKVX
MDA-MB-231 = system: MDA-MB-231
OVCAR-4 = system: OVCAR-4
NCI-H522 = system: NCI-H522
DU-145 = system: DU-145
SF-268 = system: SF-268
PC-3 = system: PC-3
A498 = system: A498
T47D = system: T47D
SN12C = system: SN12C
CCRF-CEM = system: CCRF-CEM
UACC-257 = system: UACC-257
SK-MEL-2 = system: SK-MEL-2
SK-OV-3 = system: SK-OV-3
NCI-H460 = system: NCI-H460
COLO 205 = system: COLO 205
SK-MEL-28 = system: SK-MEL-28
HOP-92 = system: HOP-92
HCC 2998 = system: HCC 2998
HCT-15 = system: HCT-15
LOX IMVI = system: LOX IMVI
SW-620 = system: SW-620
ACHN = system: ACHN
NCI-H23 = system: NCI-H23
HOP-62 = system: HOP-62
MDA-N = system: MDA-N
SR = system: SR
KM12 = system: KM12
MDA-MB-435 = system: MDA-MB-435
RPMI-8226 = system: RPMI-8226
SF-295 = system: SF-295
OVCAR-5 = system: OVCAR-5
A549 = system: A549
BT-549 = system: BT-549
K562 = system: K562
RXF 393 = system: RXF 393
NCI-H226 = system: NCI-H226
M14 = system: M14
SNB-75 = system: SNB-75
Malme-3M = system: Malme-3M

CCCCCCC(CCl)c1sc(-c2csc(CCNC(=O)OC(C)(C)C)n2)nc1C(=O)OC (configuration not stated)
GI50 (MOLT-4): 4.58 µM (inactive)
GI50 (CAKI-1): 29 µM (inactive)
GI50 (UACC-62): 13.8 µM (inactive)
GI50 (TK-10): 20.4 µM (inactive)
GI50 (OVCAR-8): 24.6 µM (inactive)
GI50 (SNB-19): 40.6 µM (inactive)
GI50 (MCF7): 11 µM (inactive)
GI50 (UO-31): 14.9 µM (inactive)
GI50 (SF-539): 21.4 µM (inactive)
GI50 (786-0): 19.3 µM (inactive)
GI50 (Hs-578T): 16.2 µM (inactive)
GI50 (NCI/ADR-RES): 2.32 µM (inactive)
GI50 (HL-60): 17.3 µM (inactive)
GI50 (SK-MEL-5): 4.37 µM (inactive)
GI50 (HT-29): 20.6 µM (inactive)
GI50 (HCT-116): 15.5 µM (inactive)
GI50 (U-251): 16.2 µM (inactive)
GI50 (OVCAR-3): 21.9 µM (inactive)
GI50 (IGROV-1): 30.2 µM (inactive)
GI50 (EKVX): 26.6 µM (inactive)
GI50 (MDA-MB-231): 26.9 µM (inactive)
GI50 (OVCAR-4): 9.98 µM (inactive)
GI50 (NCI-H522): 22 µM (inactive)
GI50 (DU-145): 33.7 µM (inactive)
GI50 (SF-268): 20.3 µM (inactive)
GI50 (PC-3): 15.9 µM (inactive)
GI50 (A498): 28.8 µM (inactive)
GI50 (T47D): 3.53 µM (inactive)
GI50 (SN12C): 19.2 µM (inactive)
GI50 (CCRF-CEM): 17.2 µM (inactive)
GI50 (UACC-257): 27.1 µM (inactive)
GI50 (SK-MEL-2): 11.7 µM (inactive)
GI50 (SK-OV-3): 19.1 µM (inactive)
GI50 (NCI-H460): 18.2 µM (inactive)
GI50 (COLO 205): 35.6 µM (inactive)
GI50 (SK-MEL-28): 28.6 µM (inactive)
GI50 (HOP-92): 40.8 µM (inactive)
GI50 (HCC 2998): 22.7 µM (inactive)
GI50 (HCT-15): 14.1 µM
GI50 (LOX IMVI): 13.2 µM (inactive)
GI50 (SW-620): 36 µM (inactive)
GI50 (ACHN): 23.3 µM (inactive)
GI50 (NCI-H23): 15.3 µM (inactive)
GI50 (HOP-62): 39.8 µM (inactive)
GI50 (MDA-N): 26.7 µM (inactive)
GI50 (SR): 3.94 µM (inactive)
GI50 (KM12): 17.8 µM (inactive)
GI50 (MDA-MB-435): 12.5 µM (inactive)
GI50 (RPMI-8226): 9.68 µM (inactive)
GI50 (SF-295): 32.2 µM (inactive)
GI50 (OVCAR-5): 32.1 µM (inactive)
GI50 (A549): 26.4 µM (inactive)
GI50 (BT-549): 18.5 µM (inactive)
GI50 (K562): 13.5 µM (inactive)

COC1(OC)CCN(Cc2ccccc2)C1=O
GI50 (MOLT-4): 2.55 µM (inactive)
GI50 (RXF 393): 12.3 µM (inactive)
GI50 (CAKI-1): 3.89 µM (inactive)
GI50 (NCI-H226): 18.7 µM (inactive)
GI50 (UACC-62): 10.9 µM (inactive)
GI50 (TK-10): 16 µM (inactive)
GI50 (OVCAR-8): 6.44 µM (inactive)
GI50 (SNB-19): 17.8 µM (inactive)
GI50 (MCF7): 4.39 µM (inactive)
GI50 (UO-31): 10.9 µM (inactive)
GI50 (SF-539): 14 µM (inactive)
GI50 (786-0): 5.08 µM (inactive)
GI50 (Hs-578T): > 100 µM (inactive)
GI50 (NCI/ADR-RES): 25.3 µM (inactive)
GI50 (HL-60): 1.69 µM (inactive)
GI50 (SK-MEL-5): 15.3 µM (inactive)
GI50 (HT-29): 5.92 µM (inactive)
GI50 (HCT-116): 3.68 µM (inactive)
GI50 (U-251): 17.3 µM (inactive)
GI50 (OVCAR-3): 11.4 µM (inactive)
GI50 (IGROV-1): 13.9 µM (inactive)
GI50 (EKVX): 16 µM (inactive)
GI50 (M14): 10.4 µM (inactive)
GI50 (MDA-MB-231): 18.5 µM (inactive)
GI50 (OVCAR-4): 16 µM (inactive)
GI50 (NCI-H522): > 100 µM (inactive)
GI50 (DU-145): 15.2 µM (inactive)
GI50 (SF-268): > 38.1 µM (inactive)
GI50 (SNB-75): 16.2 µM (inactive)
GI50 (PC-3): 13.2 µM (inactive)
GI50 (A498): 17.5 µM (inactive)
GI50 (T47D): 4.45 µM (inactive)
GI50 (SN12C): 10.4 µM (inactive)
GI50 (CCRF-CEM): 2.25 µM (inactive)
GI50 (UACC-257): 14.2 µM (inactive)
GI50 (SK-MEL-2): 15.4 µM (inactive)
GI50 (SK-OV-3): 96.4 µM (inactive)
GI50 (NCI-H460): 18.7 µM (inactive)
GI50 (COLO 205): 4.54 µM (inactive)
GI50 (SK-MEL-28): 9.62 µM (inactive)
GI50 (HOP-92): 11.1 µM (inactive)
GI50 (HCC 2998): 18.2 µM (inactive)
GI50 (HCT-15): 13.4 µM
GI50 (LOX IMVI): 5.45 µM (inactive)
GI50 (Malme-3M): > 100 µM (inactive)
GI50 (SW-620): 2.86 µM (inactive)
GI50 (ACHN): 6.28 µM (inactive)
GI50 (NCI-H23): 20 µM (inactive)
GI50 (HOP-62): 20.6 µM (inactive)
GI50 (MDA-N): 10.7 µM (inactive)
GI50 (KM12): 17.4 µM (inactive)
GI50 (MDA-MB-435): 15.6 µM (inactive)
GI50 (RPMI-8226): 6.32 µM (inactive)
GI50 (SF-295): 23.4 µM (inactive)
GI50 (OVCAR-5): 17.7 µM (inactive)
GI50 (A549): 17.7 µM (inactive)
GI50 (BT-549): 17.2 µM (inactive)
GI50 (K562): 3.27 µM (inactive)
